The source of these data is patent US9328099B2, “Cyanomethylpyrazole carboxamides as janus kinase inhibitors” (Merck Sharp & Dohme Corp., priority 2011, dated 2016).

One test has as its target JAK2 (Homo sapiens (Human), UniProt O60674). The experiment in a line: Jak Biochemical HTRF Assay, JAK2. The note with it: HTRF biochemical assay, GST-tagged catalytic domain; top concentration tested […]. The source says:
(§1) Jak Biochemical HTRF Assay Protocol
(§2) Subsequent reagent additions employed an Agilent Bravo.

Another test concerns the target JAK1 (Homo sapiens (Human), UniProt P23458). The experiment in a line: Jak Biochemical HTRF Assay, JAK1. Conditions: HTRF biochemical assay, GST-tagged catalytic domain; top concentration tested […]; read-out: JAK1 IC50.
Text: as §1, §2
Background: TR-FRET usually uses a lanthanide donor and a delayed reading to cut background.

Chain of JAK2 (O60674 849-1124): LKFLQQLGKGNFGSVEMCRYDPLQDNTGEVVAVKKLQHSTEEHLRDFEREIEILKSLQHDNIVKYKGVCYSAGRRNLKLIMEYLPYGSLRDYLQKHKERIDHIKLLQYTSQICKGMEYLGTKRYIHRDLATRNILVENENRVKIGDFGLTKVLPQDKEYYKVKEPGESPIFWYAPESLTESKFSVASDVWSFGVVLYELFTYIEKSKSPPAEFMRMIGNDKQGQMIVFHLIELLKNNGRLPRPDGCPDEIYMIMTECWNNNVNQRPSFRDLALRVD
Chain of JAK1 (P23458 875-1153): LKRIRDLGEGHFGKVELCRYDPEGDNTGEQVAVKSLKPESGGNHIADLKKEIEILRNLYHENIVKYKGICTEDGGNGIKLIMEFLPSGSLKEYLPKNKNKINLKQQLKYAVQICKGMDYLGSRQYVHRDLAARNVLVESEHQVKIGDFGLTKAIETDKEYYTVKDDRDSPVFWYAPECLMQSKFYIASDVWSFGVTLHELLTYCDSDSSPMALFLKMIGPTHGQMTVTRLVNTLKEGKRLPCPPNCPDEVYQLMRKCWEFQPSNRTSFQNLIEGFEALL

In general, IC50 refers to the concentration that gives 50% inhibition. For the compound `N#CCC1(n2cc(C(N)=O)c(Nc3ccc(S(=O)(=O)C(F)(F)F)cc3)n2)CCN(C(=O)OCC(F)(F)F)CC1` [Example 10-2, 2,2,2-trifluoroethyl 4-(4-carbamoyl-3-(4-(trifluoromethylsulfonyl)phenylamino)-1H-pyrazol-1-yl)-4-(cyanomethyl)piperidine-1-carboxylate], the 50% inhibitory concentration (IC50) at JAK2 is 4 nM; at JAK1, 0.5 nM.
As to `Cn1nccc1CN1CCC(CC#N)(n2cc(C(N)=O)c(Nc3ccnc(F)c3)n2)CC1` [Example 22-29, 1-{4-(cyanomethyl)-1-[(1-methyl-1H-pyrazol-5-yl)methyl]piperidin-4-yl}-3-[(2-fluoropyridin-4-yl)amino]-1H-pyrazole-4-carboxamide], the IC50 on JAK2 amounted to 37 nM; at JAK1, 2 nM.
On the same counts, the results for `Cc1cncc(N2CCC(CC#N)(n3cc(C(N)=O)c(Nc4ccc(F)cc4)n3)CC2)c1` [Example 3-48, 1-[4-(cyanomethyl)-1-(5-methylpyridin-3-yl)piperidin-4-yl]-3-[(4-fluorophenyl)amino]-1H-pyrazole-4-carboxamide] are 26 nM and 1 nM.
On the same counts, the results for `COc1ccc(-c2cccc(Nc3nn(C4(CC#N)CCN(C(=O)OC(C)(C)C)CC4)cc3C(N)=O)c2)cc1` [Example 15-4, tert-butyl 4-{4-carbamoyl-3-[(4′-methoxybiphenyl-3-yl)amino]-1H-pyrazol-1-yl}-4-(cyanomethyl)piperidine-1-carboxylate] are 958 nM and 41 nM.
For `N#CCC1(n2cc(C(N)=O)c(Nc3ccc(S(=O)(=O)C(F)F)cc3)n2)CCC(N2CCC(O)CC2)CC1` (stereo not drawn) [Example 40-67, Cis or trans 1-[1-(cyanomethyl)-4-(4-hydroxypiperidin-1-yl)cyclohexyl]-3-({4-[(difluoromethyl)sulfonyl]phenyl}amino)-1H-pyrazole-4-carboxamide] the same measures were 773 nM and 37 nM.
`N#CCC1(n2cc(C(N)=O)c(Nc3ccnc(F)c3)n2)CCN(Cc2cccc(C#N)c2)CC1` [Example 22-62, 1-[1-(3-cyanobenzyl)-4-(cyanomethyl)piperidin-4-yl]-3-[(2-fluoropyridin-4-yl)amino]-1H-pyrazole-4-carboxamide]: the IC50 at JAK2 worked out at 33 nM; on JAK1, 0.9 nM.
Regarding `CC(C)COC(=O)N1CCC(CC#N)(n2cc(C(N)=O)c(Nc3ccccc3)n2)CC1` [Example 30-28, 2-methylpropyl 4-[4-carbamoyl-3-(phenylamino)-1H-pyrazol-1-yl]-4-(cyanomethyl)piperidine-1-carboxylate], the values for the 50% inhibitory concentration (IC50) against JAK2 and at JAK1 were 102 nM and 3 nM, respectively.
